The test system of assay [1] is VP22 intercellular exchange. Conditions: destruction of the filamentary actin; cited from earlier work.
The subject of assay [2] is TNTs between PC12 cells. In kind it is cell-based, rat.
Assay [3] concerns PC12 cells. Description: Thymidin G1/S cell cycle block: mitosis stadia and TNT formation. The format is cell-based, rat. Conditions: 2.5 mM thymidin, 14 hours before passage; analysed ca. 1 hour after passage. The protocol: FIG. 12a—fluorescence microscopy image of PC12 cells ca. 1 hour after cell passage and staining with WGA, 20 minutes fixing in 4% paraformaldehyde/4% sucrose, 3 minutes treatment with 0.2% TRITON™ X-100 and nucleus staining with Dapi—left images in (a): the 14 hour long treatment of the cells before passage with 2.5 mM thymidin in the cell culture medium blocked the cells in the G1/S phase of the cell cycle and prevented a division of the cells; right images in (a): in non-treated PC12 cells (controls) there can be observed in the nucleus staining mitosis stadia (arrows). Despite the absence of mitosis stadia the thymidin treated PC12 cells form TNTs (arrow tips), (bar: 20 micrometer);
Via a three-dimensional videomicroscopic analysis of suprarenal medulla cells in accordance with Example 1 point 2a, b there was detected the formation of an organized TNT based network between the cells, via which a syncytium arises (FIGS. 2e, f, FIGS. 3n-q2, FIGS. 4a-c) and organelles can be unidirectionally transferred (FIGS. 4d-h, FIG. 14). TNTs were, in accordance with Example 16 found in all to date investigated cells structure systems such as PC12 cells, HEK cells (FIG. 16a) and primary cultures of the medulla (FIG. 16b) and of the hippocampus (FIG. 16c). With a special colouring method, moreover, very long TNTs have been found. […]

Assay [4] relates to TNTs between PC12 cells. Description: Number of TNTs in PC12 cells after cholesterol extraction (WGA staining, three-dimensional microscopy). In kind it is cell-based, rat. Conditions: half an hour, 2 h after passage, vs saccharose controls.
Assay [5] concerns PC12 cells. In words: Filipin staining of cellular cholesterol content. Conditions: 5 millimolar methyl-β-cyclodextrin; filipin fluorescence, mean grey scale values. The format is cell-based, rat. On the procedure: FIG. 18—the effect of cholesterol on the stability of TNTs. Two hours after passage of PC12 cells, the cell culture medium was exchanged for DMEM with 5, 8 or 10 millimolar saccharose (controls) or DMEM with 5, 8 or 10 mM methyl-β-cyclodextrin and the cells incubated for half an hour at 30° C. and 10% CO2. After the addition of WGA a three-dimensional analysis of 10 randomly selected microscopic fields was carried out (Olympus IX70, 100× objective, […]™ System, Piezo-z-stepper, in each case 40 sections) and the number of TNTs determined. […] Quantifications yielded a strong reduction of the TNT number with increasing methyl-β-cyclodextrin concentration; 40% reduction at 5 millimolar methyl-β-cyclodextrin; 93% reduction at 8 millimolar methyl-β-cyclodextrin; 100% at 10 millimolar methyl-β-cyclodextrin (c1). […] For this purpose, the methyl-β-cyclodextrin or saccharose containing DMEM of the analysed cell was exchanged with DMEM having 20 microgramm per millilitre filipin and 15 minutes later the intensity of the fluorescence staining analysed in vivo with a FITC/TRITC/DAPI filter set (Chroma, Brattleboro). In detail, after excitation at 400 nm four randomly selected microscopic fields were imaged and the mean grey scale values determined. […]

In the case of `C=C1[C@@H](C)[C@H]2[C@H](Cc3ccccc3)NC(=O)[C@]23[C@H](OC(C)=O)/C=C/[C@@](C)(O)C(=O)[C@@H](C)C/C=C/[C@H]3[C@@H]1O` [cytochalasin D], the “intercellular exchange of VP22” value in assay [1] is recorded as “can be prevented”. For the compound `C/C1=C/C(=O)O[C@@H]2C[C@@H](CC[C@H](C)/C=C\CC1)O[C@@](O)([C@@H]1CSC(=O)N1)C2` [latrunculin B], the “effect on TNT formation and on TNTs present” value in the assay with TNTs between PC12 cells [2] was “TNTs no longer form and TNTs present are destroyed”. `Cc1cn([C@H]2C[C@H](O)[C@@H](CO)O2)c(=O)[nH]c1=O` [thymidin]: in the assay on PC12 cells [3], the “TNT formation retained in comparison with the controls” value turned out to be 86.5% and the “number of mitosis stadia in comparison with the controls” value came out at 20%.

For methyl-β-cyclodextrin, the figures for the “reduction of the TNT number” value in the assay on TNTs between PC12 cells [4] (8 millimolar methyl-β-cyclodextrin in DMEM) and in the assay with TNTs between PC12 cells [4] (10 millimolar methyl-β-cyclodextrin in DMEM) were 93% and 100%, respectively. The “reduction of the cellular cholesterol content” value in the assay with PC12 cells [5] stood at 20%.

Source of the values: patent US7316913B2, “Methods and means for influencing intracellular communication and intracellular organelle transport” (Stiftelsen Universitetsforskning Bergen, priority 2001, dated 2008).
